Experimental data: PMC7414129, “Visualizing the enzyme mechanism of mevalonate diphosphate decarboxylase” (Nature Communications, 2020)

What was measured:
[1] = target: T1, MDDEF (mevalonate diphosphate decarboxylase from Enterococcus faecalis) (Enterococcus faecalis, UniProt Q9FD68); test: X-ray crystal structure (soaked); format: binding; conditions: 1.7 Å; binary complex; pH 4.6
T1 construct: gene mvaD; full-length, recombinant in E. coli BL21(DE3); N-terminal His tag removed by TEV protease (told for K187A, wild type purified similarly); residues 1-326 modelled
T1 sequence (Q9FD68 1-331): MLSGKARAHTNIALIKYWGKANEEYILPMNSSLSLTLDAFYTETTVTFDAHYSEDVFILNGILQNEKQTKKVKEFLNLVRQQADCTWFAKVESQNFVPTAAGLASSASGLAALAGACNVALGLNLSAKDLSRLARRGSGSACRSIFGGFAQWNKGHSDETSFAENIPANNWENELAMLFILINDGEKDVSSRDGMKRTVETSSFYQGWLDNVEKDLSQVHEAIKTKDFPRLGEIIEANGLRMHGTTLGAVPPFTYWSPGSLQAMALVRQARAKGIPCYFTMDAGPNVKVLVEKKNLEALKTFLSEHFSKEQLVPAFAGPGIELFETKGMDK

[2] = target: T2, MDDEF (mevalonate diphosphate decarboxylase from Enterococcus faecalis) (Enterococcus faecalis, UniProt Q9FD68, K187A); test: biochemical
T2 construct: gene mvaD

[3] = substrate: Nc1ncnc2c1ncn2[C@@H]1O[C@H](COP(=O)(O)OP(=O)(O)OP(=O)(O)O)[C@@H](O)[C@H]1O; test: purified protein; conditions: cobalt substituting for magnesium, co-substrate MVAPP, 100 mM HEPES pH 7.0, 100 mM KCl, 30 °C (standard assay)
[4] = substrate: C[C@@](O)(CCOP(=O)(O)OP(=O)(O)O)CC(=O)O; test: purified protein; conditions: cobalt substituting for magnesium, co-substrate ATP, 100 mM HEPES pH 7.0, 100 mM KCl, 30 °C (standard assay)

## C[C@@](O)(CCOP(=O)(O)OP(=O)(O)O)CC(=O)O [MVAPP, mevalonate-5-diphosphate]
[1]
  X-ray crystal structure (soaked): MDDEF-MVAPP: 6E2T

## Nc1ncnc2c1ncn2[C@@H]1O[C@H](CO[P@](=O)(O)O[P@](=O)(O)O[P@@](=O)(O)S)[C@@H](O)[C@H]1O [ATPγS]
[2]
  Kd: 182 ± 36 µM

B1: MDDEF (mevalonate diphosphate decarboxylase from Enterococcus faecalis) (Enterococcus faecalis) (protein)
chain: MLSGKARAHTNIALIKYWGKANEEYILPMNSSLSLTLDAFYTETTVTFDAHYSEDVFILNGILQNEKQTKKVKEFLNLVRQQADCTWFAKVESQNFVPTAAGLASSASGLAALAGACNVALGLNLSAKDLSRLARRGSGSACRSIFGGFAQWNKGHSDETSFAENIPANNWENELAMLFILINDGEKDVSSRDGMKRTVETSSFYQGWLDNVEKDLSQVHEAIKTKDFPRLGEIIEANGLRMHGTTLGAVPPFTYWSPGSLQAMALVRQARAKGIPCYFTMDAGPNVKVLVEKKNLEALKTFLSEHFSKEQLVPAFAGPGIELFETKGMDK
[3]
  Km: 188 ± 13 µM
[4]
  Km: 39.3 ± 4.0 µM
